# Source: PMC5352234 (International Journal of Nanomedicine, 2017)
# Like-named read-outs stand apart in the source and are kept apart here.
# What was measured:
# PKA [1] = biological target: T1, PKA (Bos taurus, UniProt P00517); conditions: cited from earlier work
# [2] = Aggregation of unmodified AuNPs by peptide; type: physicochemical; conditions: AuNPs 2.4 nM, IP20 5 µM, PKA (where present) 500 U/mL; UV-Vis, TEM
# PKA [3] = biological target: T1, PKA; assay: AuNPs/Fc-peptide electrochemical; conditions: thiolated IP20/MCH gold electrode; Fc-peptide 4 µM or AuNPs 2.4 nM
# [4] = substrate/ATP, Biotinylated antiphosphoserine antibody/SA-AuNPs-HRP, ref [19]
# [5] = substrate/ATP-S, AuNPs/MWNTs, ref [30]
# [6] = substrate/ATP, Fe^3+/H2O2, ref [20]
# [7] = substrate/ATP, Zr^4+-DNA-AuNPs network, ref [22]
substance,measurement,setting,value
CGGALRRASLG,Linear range,"PKA [1]; substrate/ATP, Phos-tag-biotin/avidin-HRP, ref [23]","500–25,000 mU/mL"
LRRASLG,Detection limit,"PKA [1]; substrate/biotin-ATP, SA-AuNPs, ref [27]","10,000 mU/mL"
CALRRASLGW,Detection limit,PKA [1]; [4],1 mU/mL
same,Linear range,PKA [1]; [4],1–10 mU/mL
CLRRASIG,Detection limit,PKA [1]; [5],90 mU/mL
same,Linear range,PKA [1]; [5],"100–1,000 mU/mL"
RTGRRNAIHD,effect on AuNPs aggregation / color change,[2],responsible for triggering the aggregation of AuNPs
LRRASLGGGGC,Detection limit,PKA [1]; [6],100 mU/mL
same,Linear range,PKA [1]; [6],"100–50,000 mU/mL"
FcCH2CO-RTGRRNAIHD [Fc-peptide],"DPV signal/peak, single component only (Fc-peptide alone or AuNPs alone)",PKA [3],no DPV peak was observed
Fc-LRRASLG,Detection limit,"PKA [1]; substrate/ATP, bis(Zn^2+-dipicolylamine), ref [21]",100 mU/mL
CLRRASLG,Detection limit,PKA [1]; [7],30 mU/mL
same,Linear range,PKA [1]; [7],"30–40,000 mU/mL"
